These results are taken from patent publication US20250051338A1, “TYK2 DEGRADERS AND USES THEREOF” (Kymera Therapeutics, Inc., priority 2021, published 2025).

Common to all, as to type: cell-based
Assay [1] deals with T1, TYK2 (Homo sapiens, UniProt P29597). In words: TYK2 degradation MSD assay in human PBMC cells. Further details: endogenous in cells; host or cells: human PBMC. The conditions noted are these: 4 to 24 hours incubation, read-out: TYK2 MSD DC50 rating in human PBMC. Summed up:
(§1)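 Compound-driven TYK2 loss is measured with a Meso Scale Discovery sandwich assay on whole-cell lysates. Cells are incubated 4 to 24 hours at 37° C with nine 1:3-diluted doses topping at 1 to 10 μM, and DC50 values derive from four-parameter curve fitting.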

Assay [2] addresses T1, TYK2. Description: TYK2 degradation MSD assay in EBV-B cells. As to conditions: 4 to 24 hours incubation, read-out: TYK2 MSD DC50 rating in EBV-B. Also on record: endogenous in cells; host or cells: EBV-B cells. In outline:
as §1

In assay [3] the target is T1, TYK2. In words: TYK2 degradation MSD assay in OCI-LY10 cells. Further details: endogenous in cells; host or cells: EBV-B cells. The conditions noted are these: 4 to 24 hours incubation, read-out: TYK2 MSD DC50 rating in OCI-LY10. Summed up:
as §1

The structures appear in SMILES notation.

T1 sequence (P29597 whole entry): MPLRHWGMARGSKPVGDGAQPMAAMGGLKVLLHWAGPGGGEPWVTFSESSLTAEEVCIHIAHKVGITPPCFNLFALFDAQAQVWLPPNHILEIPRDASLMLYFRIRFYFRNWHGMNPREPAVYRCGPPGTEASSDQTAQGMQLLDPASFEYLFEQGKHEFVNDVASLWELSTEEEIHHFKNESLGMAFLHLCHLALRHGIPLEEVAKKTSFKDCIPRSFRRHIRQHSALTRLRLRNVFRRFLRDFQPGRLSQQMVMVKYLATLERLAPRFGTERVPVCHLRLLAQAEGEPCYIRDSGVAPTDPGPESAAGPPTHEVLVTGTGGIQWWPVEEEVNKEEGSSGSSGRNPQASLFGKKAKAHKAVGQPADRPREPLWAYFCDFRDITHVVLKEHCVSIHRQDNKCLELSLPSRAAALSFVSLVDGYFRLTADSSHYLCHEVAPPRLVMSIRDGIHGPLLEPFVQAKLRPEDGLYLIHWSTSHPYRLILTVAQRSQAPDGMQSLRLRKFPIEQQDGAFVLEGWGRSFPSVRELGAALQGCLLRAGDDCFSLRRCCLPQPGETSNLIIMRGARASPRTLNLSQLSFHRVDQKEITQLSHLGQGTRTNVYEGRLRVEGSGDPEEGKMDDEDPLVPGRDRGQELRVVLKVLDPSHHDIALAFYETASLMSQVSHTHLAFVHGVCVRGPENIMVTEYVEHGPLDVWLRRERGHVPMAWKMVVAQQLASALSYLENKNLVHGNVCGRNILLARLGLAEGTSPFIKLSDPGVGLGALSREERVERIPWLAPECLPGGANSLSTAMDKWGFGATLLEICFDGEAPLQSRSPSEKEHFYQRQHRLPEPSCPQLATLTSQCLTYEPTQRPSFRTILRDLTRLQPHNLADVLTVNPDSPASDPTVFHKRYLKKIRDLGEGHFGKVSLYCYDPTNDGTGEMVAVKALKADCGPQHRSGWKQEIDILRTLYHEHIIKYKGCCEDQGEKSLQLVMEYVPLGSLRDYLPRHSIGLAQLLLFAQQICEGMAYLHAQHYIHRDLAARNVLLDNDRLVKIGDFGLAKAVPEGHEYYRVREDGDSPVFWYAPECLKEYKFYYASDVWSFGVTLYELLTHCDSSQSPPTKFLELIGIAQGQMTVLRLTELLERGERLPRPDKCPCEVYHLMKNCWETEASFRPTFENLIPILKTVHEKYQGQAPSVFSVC

Consider `Cn1c(=O)n(C2CCC(=O)NC2=O)c2ccc(-c3ccc(N4CCN(Cc5ccc(-c6cccc(Nc7cc(NC8CC8)n8ncc(C(=O)N[C@@H]9C[C@@H]9F)c8n7)c6)nc5)CC4)cc3)cc21` (stereo partly drawn) [Example K509], for which the DC50 at TYK2 [1] is above 100 nM; at TYK2 [2], 1 to 10 nM; at TYK2 [3] it was 1 to 10 nM.

`CNc1cc(Nc2cccc(-c3ccc(CN4CC5(CCN(c6cccc7c6n(C)c(=O)n7C6CCC(=O)NC6=O)CC5)C4)cn3)c2)nn2c(C(=O)N[C@@H]3C[C@@H]3F)cnc12` (stereo partly drawn) [Example K510]: the values for the half-maximal degradation concentration (DC50) on TYK2 [1], on TYK2 [2] and at TYK2 [3] were above 100 nM, 1 to 10 nM and below 1 nM, respectively.

With `CNC1=CC(Nc2cccc(-c3ccc(CN4CC5(CCN(c6cccc7c(C8CCC(=O)NC8=O)cccc67)CC5)C4)cn3)c2)=NC2C(C(=O)N[C@@H]3C[C@@H]3F)=CN=C12` (stereo partly drawn) [Example K512], the half-maximal degradation concentration (DC50) was above 100 nM at TYK2 [1], below 1 nM on TYK2 [2] and 1 to 10 nM at TYK2 [3].

Take `CNc1cc(Nc2cccc(-c3ccc(CN4CCN(c5ccc(-c6cccc7c6n(C)c(=O)n7C6CCC(=O)NC6=O)cc5)CC4)cn3)c2)nn2c(C(=O)N[C@@H]3C[C@@H]3F)cnc12` (stereo partly drawn) [Example K513]: the DC50 was above 100 nM at TYK2 [1], 1 to 10 nM at TYK2 [2] and 1 to 10 nM at TYK2 [3].

In the case of `CNc1cc(Nc2cccn(-c3ccc(CN4CCN(CC5CCN(c6ccc(-c7ccc8c(c7)n(C)c(=O)n8C7CCC(=O)NC7=O)cc6)CC5)CC4)cn3)c2=O)nn2c(C(=O)N[C@@H]3C[C@@H]3F)cnc12` (stereo partly drawn) [Example K514], the DC50 at TYK2 [1] was above 100 nM; on TYK2 [2], above 100 nM; on TYK2 [3], below 1 nM.

Regarding `Cn1c(=O)n(C2CCC(=O)NC2=O)c2ccc(-c3ccc(N4CC5(CN(Cc6ccc(-c7cccc(Nc8ccc9ncc(C(=O)NC%10CC%10)n9n8)c7)nc6)C5)C4)cc3)cc21` (stereo not drawn) [Example K515], the DC50 is above 100 nM on TYK2 [1], 1 to 10 nM at TYK2 [2] and 1 to 10 nM on TYK2 [3].

Turning to `CNC1=CC(Nc2cccc(-c3ccc(CN4CCN(c5ccc(-c6cccc7c(N8CCC(=O)NC8=O)cncc67)cc5)CC4)cn3)c2)=NN2C1=NCC2C(=O)N[C@@H]1C[C@@H]1F` (stereo partly drawn) [Example K516], the 50% degradation concentration (DC50) at TYK2 [1] is above 100 nM; on TYK2 [2], 1 to 10 nM; on TYK2 [3] it was above 100 nM.

On to `CNc1cc(Nc2cccc(-c3ccc(CN4CCC(N5CC(N6CCN(c7cccc8c7n(C)c(=O)n8C7CCC(=O)NC7=O)CC6)C5)CC4)cn3)c2)nn2c(C(=O)N[C@@H]3C[C@@H]3F)cnc12` (stereo partly drawn) [Example K517], for which the half-maximal degradation concentration (DC50) on TYK2 [1] is above 100 nM; on TYK2 [2] it was above 100 nM; on TYK2 [3] it was below 1 nM.

Regarding `CNc1cc(Nc2cccc(N3CCC(CN4CCN(c5ccc(-c6ccc7c(c6)n(C)c(=O)n7C6CCC(=O)NC6=O)cc5)CC4)CC3)c2)nn2c(C(=O)N[C@@H]3C[C@@H]3F)cnc12` (stereo partly drawn) [Example K518], the figures for the DC50 on TYK2 [1], at TYK2 [2] and at TYK2 [3] were above 100 nM, above 100 nM and below 1 nM, respectively.

Consider `CNc1cc(Nc2cccn(-c3ccc(CN4CC5(C4)CN(c4ccc(-c6ccc7c(c6)n(C)c(=O)n7C6CCC(=O)NC6=O)cc4)C5)cn3)c2=O)nn2c(C(=O)N[C@@H]3C[C@@H]3F)cnc12` (stereo partly drawn) [Example K519], for which the results for the half-maximal degradation concentration (DC50) at TYK2 [1], at TYK2 [2] and at TYK2 [3] were above 100 nM, above 100 nM and below 1 nM, respectively.

As to `CNc1cc(Nc2cccc(N3CCC(CN4CC5(CCN(c6cccc7c6n(C)c(=O)n7C6CCC(=O)NC6=O)CC5)C4)CC3)c2)nn2c(C(=O)N[C@@H]3C[C@@H]3F)cnc12` (stereo partly drawn) [Example K520], the 50% degradation concentration (DC50) at TYK2 [1] was above 100 nM; on TYK2 [2], above 100 nM; on TYK2 [3] it was below 1 nM.

Consider `CNc1cc(Nc2cccc(-c3ccc(CN4CC5(C4)CN(c4ccc(-c6ccc7c(c6)n(C)c(=O)n7C6CCC(=O)NC6=O)cc4)C5)cn3)c2)nn2c(C(=O)N[C@@H]3C[C@@H]3F)cnc12` (stereo partly drawn) [Example K522], for which the DC50 at TYK2 [1] was above 100 nM; at TYK2 [2], above 100 nM; at TYK2 [3], below 1 nM.

For the compound `CNc1cc(Nc2cccc(-c3ccc(CN4CCN(c5ccc6c(c5)n(C)c(=O)n6C5CCC(=O)NC5=O)CC4)cn3)c2)nn2c(C(=O)N[C@@H]3C[C@@H]3F)cnc12` (stereo partly drawn) [Example K523], the DC50 at TYK2 [1] was above 100 nM; at TYK2 [2], above 100 nM; on TYK2 [3], 1 to 10 nM.

For the compound `Cn1c(=O)n(C2CCC(=O)NC2=O)c2ccc(N3CCN(C4CN(C5CCN(Cc6ccc(-c7cccc(Nc8ccc9ncc(C(=O)NC%10CC%10)n9n8)c7)nc6)CC5)C4)CC3)cc21` (stereo not drawn) [Example K524], the DC50 on TYK2 [1], at TYK2 [2] and at TYK2 [3] was above 100 nM throughout.

In the case of `CNc1cc(N2CCc3c(-c4ccc(CN5CC(C6CCN(C(=O)c7ccc(Cl)c(N8CCC(=O)NC8=O)c7)CC6)C5)cn4)cccc32)nn2c(C(=O)N[C@@H]3C[C@@H]3F)cnc12` [Example K525], the DC50 was above 100 nM on TYK2 [1], above 100 nM on TYK2 [2] and below 1 nM at TYK2 [3].

Turning to `CCNC(=O)c1cnc2c(NC)cc(Nc3cccc(-c4ccc(CN5CCN(c6ccc(-c7ccc8c(c7)n(C)c(=O)n8C7CCC(=O)NC7=O)cc6)CC5)cn4)c3OC)nn12` (stereo not drawn) [Example K526], the 50% degradation concentration (DC50) is above 100 nM at TYK2 [1], above 100 nM at TYK2 [2] and 1 to 10 nM on TYK2 [3].

`CNC(=O)c1cnc2c(NC)cc(Nc3cccc(-c4ccc(CN5CCN(c6ccc(-c7ccc8c(c7)n(C)c(=O)n8C7CCC(=O)NC7=O)cc6)CC5)cn4)c3OC)nn12` (stereo not drawn) [Example K527]: the DC50 was above 100 nM at TYK2 [1], above 100 nM at TYK2 [2] and 1 to 10 nM on TYK2 [3].

For `CNc1cc(Nc2cccc(-c3ccc(CN4CCN(c5ccc(-c6ccc7c(c6)n(C)c(=O)n7C6CCC(=O)NC6=O)cc5)CC4)cn3)c2OC)nn2c(C(=O)NC(C)C)cnc12` (stereo not drawn) [Example K528], the DC50 on TYK2 [1] was above 100 nM; on TYK2 [2], above 100 nM; at TYK2 [3] it was 1 to 10 nM.

For the compound `CNc1cc(-c2ccc(-c3ccc(CN4CCN(c5ccc(-c6ccc7c(c6)n(C)c(=O)n7C6CCC(=O)NC6=O)cc5)CC4)cn3)cc2)nn2c(C(=O)N[C@@H]3C[C@@H]3F)cnc12` (stereo partly drawn) [Example K529], the DC50 was above 100 nM at TYK2 [1], above 100 nM at TYK2 [2] and 1 to 10 nM at TYK2 [3].

With `CNc1cc(-c2ccc(C3CCN(CC4CCN(c5ccc(-c6ccc7c(c6)n(C)c(=O)n7C6CCC(=O)NC6=O)cc5)CC4)CC3)cc2)nn2c(C(=O)N[C@@H]3C[C@@H]3F)cnc12` (stereo partly drawn) [Example K530], the half-maximal degradation concentration (DC50) at TYK2 [1], on TYK2 [2] and on TYK2 [3] was above 100 nM in each case.

For `CNc1cc(Nc2cccnc2OC2CCN(CCN3CCN(c4ccc5c(c4)n(C)c(=O)n5C4CCC(=O)NC4=O)CC3)CC2)nn2c(C(=O)N[C@@H]3C[C@@H]3F)cnc12` (stereo partly drawn) [Example K531], the 50% degradation concentration (DC50) on TYK2 [1] is above 100 nM; at TYK2 [2], above 100 nM; on TYK2 [3] it was 1 to 10 nM.

Turning to `CNc1cc(-c2cn(C)c3c(-c4ccc(CN5CCN(c6ccc(-c7ccc8c(c7)n(C)c(=O)n8C7CCC(=O)NC7=O)cc6)CC5)cc4)cccc23)nn2c(C(=O)N[C@@H]3C[C@@H]3F)cnc12` (stereo partly drawn) [Example K532], the half-maximal degradation concentration (DC50) at TYK2 [1], on TYK2 [2] and on TYK2 [3] was above 100 nM in each case.

As for `CNc1cc(Nc2cccc(-c3ccc(CN4CCN(c5ccc(-c6ccc7c(c6)n(C)c(=O)n7C6CCC(=O)NC6=O)cc5)CC4)cn3)c2)nn2c(-c3cn(C(C)C)nn3)cnc12` (stereo not drawn) [Example K534], the results for the DC50 on TYK2 [1], at TYK2 [2] and on TYK2 [3] were above 100 nM, above 100 nM and 1 to 10 nM, respectively.

A word on the DC50: it is the midpoint of the concentration-degradation curve.
